Measured values taken from PubChem BioAssay (NCI).
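Values below derive from 48-hour exposures of cells grown in 96-well plates, with endpoints linearly interpolated between the two concentrations bracketing the appropriate inhibition level. GI50 is the concentration that inhibits growth by half. TGI: total growth inhibition.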

What was measured:
Experiment in all cases: NCI tumour cell line growth inhibition, 48 h
786-0 renal = test system: 786-0 renal
EKVX NSCLC = test system: EKVX NSCLC
M19-MEL melanoma = test system: M19-MEL melanoma
OVCAR-4 ovarian = test system: OVCAR-4 ovarian
SK-OV-3 ovarian = test system: SK-OV-3 ovarian
COLO 205 colon = test system: COLO 205 colon
SW-620 colon = test system: SW-620 colon
HCC-2998 colon = test system: HCC-2998 colon
DMS 273 small cell lung = test system: DMS 273 small cell lung
IGROV1 ovarian = test system: IGROV1 ovarian
SK-MEL-5 melanoma = test system: SK-MEL-5 melanoma
SNB-75 CNS = test system: SNB-75 CNS
KM12 colon = test system: KM12 colon
KM20L2 colon = test system: KM20L2 colon
OVCAR-8 ovarian = test system: OVCAR-8 ovarian
NCI-H23 lung = test system: NCI-H23 lung
NCI-H522 lung = test system: NCI-H522 lung
HL-60(TB) leukemia = test system: HL-60(TB) leukemia
MALME-3M melanoma = test system: MALME-3M melanoma
SN12C renal = test system: SN12C renal
UACC-62 melanoma = test system: UACC-62 melanoma
HT29 colon = test system: HT29 colon
RPMI-8226 leukemia = test system: RPMI-8226 leukemia
UACC-257 melanoma = test system: UACC-257 melanoma
HOP-92 NSCLC = test system: HOP-92 NSCLC
DMS 114 small cell lung = test system: DMS 114 small cell lung
K-562 leukemia = test system: K-562 leukemia
HCT-116 colon = test system: HCT-116 colon
SR leukemia = test system: SR leukemia
SK-MEL-28 melanoma = test system: SK-MEL-28 melanoma
RXF-631 renal = test system: RXF-631 renal
MOLT-4 leukemia = test system: MOLT-4 leukemia
CAKI-1 renal = test system: CAKI-1 renal
XF 498 CNS = test system: XF 498 CNS
A549 NSCLC = test system: A549 NSCLC
U251 CNS = test system: U251 CNS
UO-31 renal = test system: UO-31 renal
TK-10 renal = test system: TK-10 renal
A498 renal = test system: A498 renal
NCI-H460 lung = test system: NCI-H460 lung
HCT-15 colon = test system: HCT-15 colon
ACHN renal = test system: ACHN renal
SNB-78 CNS = test system: SNB-78 CNS
OVCAR-5 ovarian = test system: OVCAR-5 ovarian
SF-539 CNS = test system: SF-539 CNS
OVCAR-3 ovarian = test system: OVCAR-3 ovarian
M14 melanoma = test system: M14 melanoma
LOX IMVI melanoma = test system: LOX IMVI melanoma
SF-295 CNS = test system: SF-295 CNS
LXFL 529 NSCLC = test system: LXFL 529 NSCLC
RXF 393 renal = test system: RXF 393 renal
SK-MEL-2 melanoma = test system: SK-MEL-2 melanoma
DLD-1 colon = test system: DLD-1 colon
NCI-H226 lung = test system: NCI-H226 lung
SNB-19 CNS = test system: SNB-19 CNS
HOP-62 NSCLC = test system: HOP-62 NSCLC

CCC[CH2][Sn]([CH2]CCC)([O]C(=O)C1CCC(=O)N1)[O]C(=O)C1CCC(=O)N1 (configuration not stated)
GI50 (786-0 renal): 196 nM
TGI (786-0 renal): 409 nM
GI50 (EKVX NSCLC): 264 nM
TGI (EKVX NSCLC): 918 nM
GI50 (M19-MEL melanoma): 244 nM
TGI (M19-MEL melanoma): 824 nM
GI50 (OVCAR-4 ovarian): 376 nM
TGI (OVCAR-4 ovarian): 1710 nM
GI50 (SK-OV-3 ovarian): 801 nM
TGI (SK-OV-3 ovarian): 2020 nM
GI50 (COLO 205 colon): 363 nM
TGI (COLO 205 colon): 1160 nM
GI50 (SW-620 colon): 134 nM
TGI (SW-620 colon): 307 nM
GI50 (HCC-2998 colon): 400 nM
TGI (HCC-2998 colon): 1590 nM
GI50 (DMS 273 small cell lung): 336 nM
TGI (DMS 273 small cell lung): 1160 nM
GI50 (IGROV1 ovarian): 1100 nM
TGI (IGROV1 ovarian): 2480 nM
GI50 (SK-MEL-5 melanoma): 461 nM
TGI (SK-MEL-5 melanoma): 1650 nM
GI50 (SNB-75 CNS): 221 nM
TGI (SNB-75 CNS): 752 nM
GI50 (KM12 colon): 496 nM
TGI (KM12 colon): 1730 nM
GI50 (KM20L2 colon): 446 nM
TGI (KM20L2 colon): 1690 nM
GI50 (OVCAR-8 ovarian): 319 nM
TGI (OVCAR-8 ovarian): 1010 nM
GI50 (NCI-H23 lung): 147 nM
TGI (NCI-H23 lung): 384 nM
GI50 (NCI-H522 lung): 26.3 nM
TGI (NCI-H522 lung): 110 nM
GI50 (HL-60(TB) leukemia): 157 nM
TGI (HL-60(TB) leukemia): 445 nM
GI50 (MALME-3M melanoma): 78.3 nM
TGI (MALME-3M melanoma): 243 nM
GI50 (SN12C renal): 341 nM
TGI (SN12C renal): 1200 nM
GI50 (UACC-62 melanoma): 154 nM
TGI (UACC-62 melanoma): 331 nM
GI50 (HT29 colon): 588 nM
TGI (HT29 colon): 2060 nM
GI50 (RPMI-8226 leukemia): 124 nM
TGI (RPMI-8226 leukemia): 669 nM
GI50 (UACC-257 melanoma): 159 nM
TGI (UACC-257 melanoma): 338 nM
GI50 (HOP-92 NSCLC): 141 nM
TGI (HOP-92 NSCLC): 575 nM
GI50 (DMS 114 small cell lung): 168 nM
TGI (DMS 114 small cell lung): 367 nM
GI50 (K-562 leukemia): 138 nM
TGI (K-562 leukemia): 565 nM
GI50 (HCT-116 colon): 786 nM
TGI (HCT-116 colon): 2040 nM
GI50 (SR leukemia): 180 nM
TGI (SR leukemia): 526 nM
GI50 (SK-MEL-28 melanoma): 258 nM
TGI (SK-MEL-28 melanoma): 654 nM
GI50 (RXF-631 renal): 159 nM
TGI (RXF-631 renal): 297 nM
GI50 (MOLT-4 leukemia): 245 nM
TGI (MOLT-4 leukemia): 755 nM
GI50 (CAKI-1 renal): 75.7 nM
TGI (CAKI-1 renal): 356 nM
GI50 (XF 498 CNS): 217 nM
TGI (XF 498 CNS): 376 nM
GI50 (A549 NSCLC): 2010 nM
TGI (A549 NSCLC): 3640 nM
GI50 (U251 CNS): 164 nM
TGI (U251 CNS): 330 nM
GI50 (UO-31 renal): 711 nM
TGI (UO-31 renal): 1980 nM
GI50 (TK-10 renal): 240 nM
TGI (TK-10 renal): 682 nM
GI50 (A498 renal): 210 nM
TGI (A498 renal): 517 nM
GI50 (NCI-H460 lung): 1270 nM
TGI (NCI-H460 lung): 2530 nM
GI50 (HCT-15 colon): 182 nM
TGI (HCT-15 colon): 353 nM
GI50 (ACHN renal): 220 nM
TGI (ACHN renal): 512 nM
GI50 (SNB-78 CNS): 260 nM
TGI (SNB-78 CNS): 759 nM
GI50 (OVCAR-5 ovarian): 2050 nM
TGI (OVCAR-5 ovarian): 3480 nM
GI50 (SF-539 CNS): 185 nM
TGI (SF-539 CNS): 414 nM
GI50 (OVCAR-3 ovarian): 218 nM
TGI (OVCAR-3 ovarian): 663 nM
GI50 (M14 melanoma): 200 nM
TGI (M14 melanoma): 456 nM
GI50 (LOX IMVI melanoma): 152 nM
TGI (LOX IMVI melanoma): 328 nM
GI50 (SF-295 CNS): 274 nM
TGI (SF-295 CNS): 1050 nM
GI50 (LXFL 529 NSCLC): 49.8 nM
TGI (LXFL 529 NSCLC): 188 nM
GI50 (RXF 393 renal): 300 nM
TGI (RXF 393 renal): 473 nM
GI50 (SK-MEL-2 melanoma): 181 nM
TGI (SK-MEL-2 melanoma): 367 nM
GI50 (DLD-1 colon): 353 nM
TGI (DLD-1 colon): 1520 nM
GI50 (NCI-H226 lung): 1430 nM
TGI (NCI-H226 lung): 2810 nM
GI50 (SNB-19 CNS): 303 nM
TGI (SNB-19 CNS): 909 nM
GI50 (HOP-62 NSCLC): 619 nM
TGI (HOP-62 NSCLC): 2040 nM
